{"source": "PubChem BioAssay (NCI)", "note": "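96-well plates; 48 h exposure; 5 concentrations. Endpoints by linear interpolation between flanking doses. Not reached: highest tested concentration assigned. The concentration for full growth arrest is given as TGI.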", "data": [{"system": "P388/ADR leukemia", "assay": "NCI tumour cell line growth inhibition, 48 h", "units": {"TGI": "µM"}, "values": [{"smiles": "CC(C(=O)O)c1cnn(-c2ccccc2)c1-n1cccc1", "note": "(stereo not drawn)", "TGI": "> 100"}, {"smiles": "CC[C@]12C=CCN3CC[C@@]4(c5ccc(OC)cc5N(C)[C@H]4[C@@](O)(C(=O)OC)[C@@H]1OC(C)=O)[C@@H]32", "TGI": "> 200"}, {"smiles": "COc1ccc2c(c1)CCCc1cn[nH]c1-2", "TGI": "> 100"}, {"smiles": "CC(C)CCN=c1cc2n(-c3ccc(Cl)cc3)c3ccccc3nc-2cc1Nc1ccc(Cl)cc1", "TGI": 10.2}]}, {"system": "DMS 114 small cell lung", "assay": "NCI tumour cell line growth inhibition, 48 h", "units": {"TGI": "µM"}, "values": [{"smiles": "CC[C@]12C=CCN3CC[C@@]4(c5ccc(OC)cc5N(C)[C@H]4[C@@](O)(C(=O)OC)[C@@H]1OC(C)=O)[C@@H]32", "TGI": "> 200"}, {"smiles": "Oc1ccc2ccccc2c1N=Nc1ccc(F)cc1", "TGI": "> 100"}, {"smiles": "COc1ccc2c(c1)CCCc1cn[nH]c1-2", "TGI": "> 100"}, {"smiles": "CC(C)CCN=c1cc2n(-c3ccc(Cl)cc3)c3ccccc3nc-2cc1Nc1ccc(Cl)cc1", "TGI": 7.63}]}, {"system": "HOP-18 NSCLC", "assay": "NCI tumour cell line growth inhibition, 48 h", "units": {"TGI": "µM"}, "values": [{"smiles": "CC(C(=O)O)c1cnn(-c2ccccc2)c1-n1cccc1", "note": "(stereo not drawn)", "TGI": "> 100"}, {"smiles": "CC[C@]12C=CCN3CC[C@@]4(c5ccc(OC)cc5N(C)[C@H]4[C@@](O)(C(=O)OC)[C@@H]1OC(C)=O)[C@@H]32", "TGI": "> 200"}, {"smiles": "Oc1ccc2ccccc2c1N=Nc1ccc(F)cc1", "TGI": "> 100"}, {"smiles": "COc1ccc2c(c1)CCCc1cn[nH]c1-2", "TGI": "> 100"}, {"smiles": "CC(C)CCN=c1cc2n(-c3ccc(Cl)cc3)c3ccccc3nc-2cc1Nc1ccc(Cl)cc1", "TGI": 56.6}]}, {"system": "P388 leukemia", "assay": "NCI tumour cell line growth inhibition, 48 h", "units": {"TGI": "µM"}, "values": [{"smiles": "CC(C(=O)O)c1cnn(-c2ccccc2)c1-n1cccc1", "note": "(stereo not drawn)", "TGI": "> 100"}, {"smiles": "COc1ccc2c(c1)CCCc1cn[nH]c1-2", "TGI": "> 100"}, {"smiles": "CC(C)CCN=c1cc2n(-c3ccc(Cl)cc3)c3ccccc3nc-2cc1Nc1ccc(Cl)cc1", "TGI": 11.7}]}, {"system": "XF 498 CNS", "assay": "NCI tumour cell line growth inhibition, 48 h", "units": {"TGI": "µM"}, "values": [{"smiles": "CC(C(=O)O)c1cnn(-c2ccccc2)c1-n1cccc1", "note": "(stereo not drawn)", "TGI": "> 100"}, {"smiles": "CC[C@]12C=CCN3CC[C@@]4(c5ccc(OC)cc5N(C)[C@H]4[C@@](O)(C(=O)OC)[C@@H]1OC(C)=O)[C@@H]32", "TGI": "> 200"}, {"smiles": "COc1ccc2c(c1)CCCc1cn[nH]c1-2", "TGI": "> 100"}, {"smiles": "CC(C)CCN=c1cc2n(-c3ccc(Cl)cc3)c3ccccc3nc-2cc1Nc1ccc(Cl)cc1", "TGI": 20.6}]}, {"system": "DLD-1 colon", "assay": "NCI tumour cell line growth inhibition, 48 h", "units": {"TGI": "µM"}, "values": [{"smiles": "CC(C(=O)O)c1cnn(-c2ccccc2)c1-n1cccc1", "note": "(stereo not drawn)", "TGI": "> 100"}, {"smiles": "CC[C@]12C=CCN3CC[C@@]4(c5ccc(OC)cc5N(C)[C@H]4[C@@](O)(C(=O)OC)[C@@H]1OC(C)=O)[C@@H]32", "TGI": "> 200"}, {"smiles": "COc1ccc2c(c1)CCCc1cn[nH]c1-2", "TGI": "> 100"}, {"smiles": "CC(C)CCN=c1cc2n(-c3ccc(Cl)cc3)c3ccccc3nc-2cc1Nc1ccc(Cl)cc1", "TGI": 68.4}]}, {"system": "SNB-78 CNS", "assay": "NCI tumour cell line growth inhibition, 48 h", "units": {"TGI": "µM"}, "values": [{"smiles": "CC(C(=O)O)c1cnn(-c2ccccc2)c1-n1cccc1", "note": "(stereo not drawn)", "TGI": "> 100"}, {"smiles": "CC[C@]12C=CCN3CC[C@@]4(c5ccc(OC)cc5N(C)[C@H]4[C@@](O)(C(=O)OC)[C@@H]1OC(C)=O)[C@@H]32", "TGI": "> 200"}, {"smiles": "COc1ccc2c(c1)CCCc1cn[nH]c1-2", "TGI": "> 100"}, {"smiles": "CC(C)CCN=c1cc2n(-c3ccc(Cl)cc3)c3ccccc3nc-2cc1Nc1ccc(Cl)cc1", "TGI": "> 100"}]}, {"system": "LXFL 529 NSCLC", "assay": "NCI tumour cell line growth inhibition, 48 h", "units": {"TGI": "µM"}, "values": [{"smiles": "Oc1ccc2ccccc2c1N=Nc1ccc(F)cc1", "TGI": "> 100"}]}, {"system": "KM20L2 colon", "assay": "NCI tumour cell line growth inhibition, 48 h", "units": {"TGI": "µM"}, "values": [{"smiles": "CC(C(=O)O)c1cnn(-c2ccccc2)c1-n1cccc1", "note": "(stereo not drawn)", "TGI": "> 100"}, {"smiles": "CC[C@]12C=CCN3CC[C@@]4(c5ccc(OC)cc5N(C)[C@H]4[C@@](O)(C(=O)OC)[C@@H]1OC(C)=O)[C@@H]32", "TGI": "> 164"}, {"smiles": "Oc1ccc2ccccc2c1N=Nc1ccc(F)cc1", "TGI": "> 100"}, {"smiles": "COc1ccc2c(c1)CCCc1cn[nH]c1-2", "TGI": "> 100"}, {"smiles": "CC(C)CCN=c1cc2n(-c3ccc(Cl)cc3)c3ccccc3nc-2cc1Nc1ccc(Cl)cc1", "TGI": 19.7}]}, {"system": "M19-MEL melanoma", "assay": "NCI tumour cell line growth inhibition, 48 h", "units": {"TGI": "µM"}, "values": [{"smiles": "CC(C(=O)O)c1cnn(-c2ccccc2)c1-n1cccc1", "note": "(stereo not drawn)", "TGI": "> 100"}, {"smiles": "CC[C@]12C=CCN3CC[C@@]4(c5ccc(OC)cc5N(C)[C@H]4[C@@](O)(C(=O)OC)[C@@H]1OC(C)=O)[C@@H]32", "TGI": "> 63.2"}, {"smiles": "Oc1ccc2ccccc2c1N=Nc1ccc(F)cc1", "TGI": "> 100"}, {"smiles": "COc1ccc2c(c1)CCCc1cn[nH]c1-2", "TGI": "> 100"}, {"smiles": "CC(C)CCN=c1cc2n(-c3ccc(Cl)cc3)c3ccccc3nc-2cc1Nc1ccc(Cl)cc1", "TGI": 20.2}]}, {"system": "DMS 273 small cell lung", "assay": "NCI tumour cell line growth inhibition, 48 h", "units": {"TGI": "µM"}, "values": [{"smiles": "CC(C(=O)O)c1cnn(-c2ccccc2)c1-n1cccc1", "note": "(stereo not drawn)", "TGI": "> 100"}, {"smiles": "CC[C@]12C=CCN3CC[C@@]4(c5ccc(OC)cc5N(C)[C@H]4[C@@](O)(C(=O)OC)[C@@H]1OC(C)=O)[C@@H]32", "TGI": "> 200"}, {"smiles": "Oc1ccc2ccccc2c1N=Nc1ccc(F)cc1", "TGI": "> 100"}, {"smiles": "COc1ccc2c(c1)CCCc1cn[nH]c1-2", "TGI": "> 100"}, {"smiles": "CC(C)CCN=c1cc2n(-c3ccc(Cl)cc3)c3ccccc3nc-2cc1Nc1ccc(Cl)cc1", "TGI": 56.4}]}, {"system": "SN12K1 renal", "assay": "NCI tumour cell line growth inhibition, 48 h", "units": {"TGI": "µM"}, "values": [{"smiles": "CC(C(=O)O)c1cnn(-c2ccccc2)c1-n1cccc1", "note": "(stereo not drawn)", "TGI": "> 100"}, {"smiles": "CC[C@]12C=CCN3CC[C@@]4(c5ccc(OC)cc5N(C)[C@H]4[C@@](O)(C(=O)OC)[C@@H]1OC(C)=O)[C@@H]32", "TGI": "> 200"}, {"smiles": "COc1ccc2c(c1)CCCc1cn[nH]c1-2", "TGI": "> 100"}, {"smiles": "CC(C)CCN=c1cc2n(-c3ccc(Cl)cc3)c3ccccc3nc-2cc1Nc1ccc(Cl)cc1", "TGI": 23.7}]}]}
